Laboratory results as given in patent US8076342B2, “Malonate salt of 4-((1R,3S)-6-chloro-3-phenylindan-1-yl)-1,2,2-trimethylpiperazine and uses of same” (priority 2003, dated 2011).
Entries after “also recorded” stand apart in the source; their conditions may differ.

Key:
[1] = Stability of the salts (heat/humidity, heat, light; HPLC impurity peak area); format: physicochemical
Procedure: The stability of the salts was investigated under the following circumstances:
Heat, 60° C./80% RH: Samples were stored at 60° C. with 80% RH for one week. Then they were dissolved and analysed by HPLC.
Heat, 90° C.: Samples (˜10 mg) were stored at 90° C. in closed containers containing 1 droplet of water. Then they were dissolved and analysed by HPLC.
Light: Samples were placed in the light cabinet at 250 w/m^2 for 24 hours. Then they were dissolved and analysed by HPLC.
The area of peaks in the chromatograms besides the peaks corresponding to the substance or the acid was summarized.

[2] = Hygroscopicity by Dynamic Vapour sorption (DVS); format: physicochemical
From the text: The hygroscopicity of the fumarate salt, the succinate salt (the alpha form) and the malonate salt was investigated by Dynamic Vapour sorption (DVS). […] The malonate absorbs gradually up to 1% of water when the relative humidity is raised to 95%, but with no hysteresis.

[3] = system: dopamine D1 receptor; conditions: cited from earlier work
[4] = biological target: dopamine D2 receptor (Homo sapiens, UniProt P14416); conditions: cited from earlier work
[5] = system: 5-HT2 receptor; conditions: cited from earlier work
[6] = system: rats; conditions: cited from earlier work
[7] = system: D1 and D2; conditions: cited from earlier work
[8] = 90° C., closed containers containing 1 droplet of water

dopamine D2 receptor, sequence (P14416 whole entry, species assumed): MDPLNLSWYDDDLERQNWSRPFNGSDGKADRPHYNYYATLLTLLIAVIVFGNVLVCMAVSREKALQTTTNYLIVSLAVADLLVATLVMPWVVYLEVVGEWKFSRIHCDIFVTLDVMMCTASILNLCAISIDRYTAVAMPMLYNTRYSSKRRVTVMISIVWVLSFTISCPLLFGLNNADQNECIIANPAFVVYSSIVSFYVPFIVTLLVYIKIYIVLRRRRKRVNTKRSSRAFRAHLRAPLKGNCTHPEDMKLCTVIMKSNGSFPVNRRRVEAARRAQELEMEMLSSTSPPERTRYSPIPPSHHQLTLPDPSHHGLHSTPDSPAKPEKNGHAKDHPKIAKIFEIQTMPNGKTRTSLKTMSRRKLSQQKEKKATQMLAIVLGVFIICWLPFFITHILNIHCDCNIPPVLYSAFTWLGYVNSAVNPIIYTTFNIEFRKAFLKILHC

Sum of impurity peak area % ([1]; 60° C./80% RH, one week) [%]	Sum of impurity peak area % [1, 8] [%]	Sum of impurity peak area % ([1]; Light, 250 w/m^2 for 24 hours) [%]	Hygroscopicity ([2]; DVS)	Stability compared with the fumarate salt ([1]; 60° C./80% relative humidity (RH))	Stability compared with the fumarate salt ([1]; 90° C.)	Stability compared with the fumarate salt ([1]; exposed to light)	Water absorbed ([2]; relative humidity raised to 95%)	Stability compared with the fumarate salt and the hydrogen malonate salt [1]	Degradation ([1]; all stability conditions)	Structure (SMILES)	D1 antagonist potency [3]	D2 antagonist potency [4]	5-HT2 antagonist potency [5]	Induction of catalepsy [6]	D1 versus D2 antagonist potency in vivo [7]	Hysteresis of water sorption ([2]; DVS)
0.07	0.09	0.06	non-hygroscopic	–	–	–	–	–	–	CN1CCN([C@@H]2C[C@@H](c3ccccc3)c3ccc(Cl)cc32)CC1(C)C.O=C(O)/C=C/C(=O)O (relative stereo) [Fumarate, trans-4-((1R,3S)-6-chloro-3-phenylindan-1-yl)-1,2,2-trimethylpiperazinium (I) hydrogen fumarate]	potent	potent	potent	does not induce catalepsy	equipotent	–
0	6.19	0.06	non-hygroscopic	more stable	less stable	similar	up to 1%	–	–	CN1CCN([C@@H]2C[C@@H](c3ccccc3)c3ccc(Cl)cc32)CC1(C)C.O=C(O)CC(=O)O (relative stereo) [Malonate 1:1, trans-4-((1R,3S)-6-chloro-3-phenylindan-1-yl)-1,2,2-trimethylpiperazinium (I) hydrogen malonate]	–	–	–	–	–	no hysteresis; also recorded: no hysterhesis
0	0	0	non-hygroscopic	–	–	–	–	more stable	does not show any degradation at all	CN1CCN([C@@H]2C[C@@H](c3ccccc3)c3ccc(Cl)cc32)CC1(C)C.O=C(O)CCC(=O)O (relative stereo) [Succinate 1:1 alpha, trans-4-((1R,3S)-6-chloro-3-phenylindan-1-yl)-1,2,2-trimethyl-piperazinium (I) hydrogen succinate]	–	–	–	–	–	–
